# Source: article PMC6407599 (Journal of Enzyme Inhibition and Medicinal Chemistry, 2019)
# “And” between values parts separate entries of the source, which are not always exact repeats. Identical values can stand only once. Counter-ions that a name gives are not always drawn. Like-named read-outs stand apart in the source and are kept apart here. Square brackets hold non-standard residues; d marks the D form. Peptide text beside a SMILES is read from it. * marks the point of attachment. Lys(Me2) = CN(C)CCCC[C@H](N)C(=O)O; Lys(Me) = CNCCCC[C@H](N)C(=O)O; Cbz = O=C(OCc1ccccc1)*
# Assays:
# [1] = test system: Hsp90-Cyp40 interaction (C-terminal domain of Hsp90 and full-length Cyp40); assay: AlphaLISA binding assay, Hsp90-Cyp40 interaction; details: for IC50: C-terminal domain of Hsp90 and full-length Cyp40, DMSO (1%) = 100% binding, read-out: IC50, inhibition of Hsp90-Cyp40 interaction; for efficacy at inhibiting the binding event between Hsp90 and Cyp40: C-terminal domain of Hsp90 and full-length Cyp40
# Description: The binding assays were performed using an Hsp90 (C-terminal) Inhibitor Screening Kits (cat. 50314 or 50317) purchased from BPS Bioscience. The assay was performed according to the manufacturer's protocol and utilised AlphaLISA® technology (PerkinElmer). The test compounds were dissolved in 100% DMSO and diluted with water to the desired concentration, so that the final dilution was dissolved in 5% DMSO with water. Two microlitres of the dilution was added to a 10 µL reaction so that the final concentration of DMSO was 1% in all reactions. The reactions were conducted at room temperature for 30 min in a 10 µL mixture containing assay buffer, 6 ng (24 nM) of a C-terminal Hsp90β (UniProt P08238, a.a. 527–724) or C-terminal Hsp90α (UniProt P07900, a.a. 535–732), 40 ng (60 nM) Cyp40, and the test compound. Note: for the full-length Hsp90 binding assays, C-terminal Hsp90 was replaced with 24 nM of full-length Hsp90α (Abcam cat # ab48801). After the 30 min incubation, 10 µL of buffer containing 20 µg/mL glutathione acceptor beads (Perkin Elmer) were added to the reaction mix and incubated for 30 min in the dark. Ten microlitres of 40 µg/mL streptavidin donor beads (Perkin Elmer) were then added and the final 30 µL mixture was incubated for 1 h in the dark. The AlphaLISA® signal was measured using a Tecan F200 Pro multimode plate reader.
# Modifications to the side chains using the common strategy of O- and N-alkylations were the first prodrugs produced (Figure 2). Compounds LB58, LB56, LB97, and LB55 were all based on the structure of LB51 but contained polar side chains that were masked with methyl moieties (Figure 2). […] However, masking groups often affect the target binding affinity, and evaluation of these molecules in binding assays was required. A biochemical assay using AlphaLISA technology was used to evaluate the efficacy of these molecules in blocking the interaction between Hsp90 and the co-chaperone, Cyp40 (Figure 2). Each compound was incubated at multiple concentrations with the C-terminal domain of Hsp90 and full-length Cyp40. Beads specific for each protein were incubated with the reaction mixture. When the two proteins are bound to each other, the beads for one protein transfer energy to the beads of the other protein, thereby producing a signal. When the binding interaction between the two proteins is inhibited, energy transfer cannot occur, which results in no signal being produced. DMSO (1%) was used as a control, where it represents 100% binding between the two proteins.
# The alpha biochemical assay was used to evaluate the efficacy of these two molecules, LB51(Ac)2–Cbz and LB63(Ac)2–Cbz, in blocking the interaction between Hsp90 and the co-chaperone, Cyp40 (Figure 6(A)). Each compound was incubated at multiple concentrations with the C-terminal domain of Hsp90 and full-length Cyp40. DMSO (1%) was used as a negative control to represent 100% binding between the two proteins, and LB51 and LB63 were used as positive controls, inhibiting the binding event. LB51(Ac)2–Cbz was ineffective at inhibiting the interaction between Hsp90 and Cyp40 (Figure 6(a)).
# [2] = Metabolism assay using human liver microsomes; type: in vitro ADME; details: for cleavage of acetyl or trifluoroacetyl group by human liver microsomes: 180 min incubation; for cleavage of acetyl group by human liver microsomes: after 10 min
# Description: Human liver microsomes (Life Technologies Gibco cat. # HMMPCL) were thawed on ice and suspended in 100 mM phosphate buffer (pH 7.4) at 0.5 mg/mL. Compounds dissolved in DMSO were then added to the reaction mixture at a final concentration of 5 µM and a final DMSO concentration of 0.1%. Metabolism was initiated by adding 5 mM NADPH and the reactions were incubated at 37 °C in a water bath. Fifty microlitre aliquots of the reaction mixture were taken at various time points and added to 100 µL of cold methanol to terminate the reaction. The time points were centrifuged at 1000 × g for 5 min. Samples were stored at −20 °C until LC/MS analysis.
# Using commercially available liver microsomes that contain the full set of endoplasmic reticulum-based metabolic enzymes, including Cyp450s, in an in vitro system the O- and N-dealkylation processes of LB55 were evaluated (Figure 3)[47–48]. Human liver microsomes were purchased from Life Technologies Australia Pty Ltd (catalogue number HMMCPL) and were prepared from a pool of 50 individual male and female donors. The microsomes were diluted into phosphate buffer at pH 7.4 and incubated with LB55 at 37 °C in the presence of the enzyme cofactor NADPH, which initiates the reactions. Aliquots of the reaction mixture were taken at several time points and quenched with cold methanol, which inhibits enzyme activity. The samples were immediately centrifuged at high speed to pellet the microsomes and the supernatants were analysed via LC/MS
# However, for simplicity and speed of assessment we opted to identify the removal of the pro-drug moieties using LC/MS in selected-ion mode (SIM). We scanned for specific mass-to-charge ratios (m/z) based on the molecules molecular weight. […] LB55 was incubated with the human liver microsomes for 180 min and samples were taken at 0, 10, 20, 30, 60, 120, and 180 min and analysed via LC/MS in SIM mode. The scanning range was set at m/z 600–800, as this range would capture both the parent LB55 and any demethylated metabolites including LB51 (Figure 3).
# Using the same commercially available liver microsomal assay described earlier, we evaluated the removal of acetylated and trifluoroacetylated amino acids. The studies were performed on three amino acids on LB51 that required protecting groups: serine, tyrosine, and lysine (Figure 4).
# Caco-2 = details: cited from earlier work; for apparent permeability Papp: Caco-2 assays
# mouse liver = assay: Metabolism assay in a mouse (liver extract, LC/MS); type: in vivo; details: IP injection 59.4 mg/kg, 1 h
# Description: Mice were purchased from Australian BioResources (ABR) (Moss Vale, NSW, Australia) at 7 weeks of age and shipped to a specific pathogen-free facility at UNSW Biological Resources Centre (Sydney, Australia) with 12 h light/dark cycles. Following 1 week of acclimatisation, mice were injected in the intraperitoneal space with LB55 (1.2 mg in 120 µL Milli-Q water). One hour later, mice were euthanised by CO2 asphyxiation and the liver was collected for drug extraction. All mouse experiments were approved by the UNSW Animal Care and Ethics Committee. To extract the compound for LC/MS analysis, the liver tissue was powdered in a mortar and pestle that had been pre-cooled with liquid nitrogen. The tissue was then homogenised in phosphate buffered saline (pH 7.4) by sonication for 2 h. The homogenate was then centrifuged at 800 × g for 10 min at 4 °C before collecting the supernatant. […] The extraction was then centrifuged at 1000 × g for 10 min at 4 °C and subsequently analysed by LC/MS.
# The stability of LB55 in a mouse liver was accomplished by treating the mouse with LB55 via intraperitoneal (IP) injection at 59.4 mg/kg for 1 h. […] The mixture was then centrifuged, and the supernatant was analysed via LC/MS in SIM mode, scanning for parent LB55 and any demethylated metabolites including LB51.
# C-terminal Hsp90β [3] = target: T1, C-terminal Hsp90β (UniProt P08238, a.a. 527–724) or C-terminal Hsp90α (UniProt P07900, a.a. 535–732) (UniProt P08238); assay: AlphaScreen or HTRF; AlphaLISA competition (BPS Bioscience kit): 24 nM C-terminal Hsp90, 60 nM Cyp40 and test compound in 10 µL assay buffer, 1% DMSO, room temperature, 30 min; then glutathione acceptor beads and streptavidin donor beads; DMSO = 100% binding
# C-terminal Hsp90β [4] = target: T1, C-terminal Hsp90β; assay: as above; remark: listed apart in the source
# [5] = target: C-terminal Hsp90 (His-tagged, competitive binding assay); assay: pull-down; competitive binding: C-terminal Hsp90 (100 µM) with LB51-tag (100 µM) 1 h at RT, then untagged compound (0–100 µM) 1 h; captured on NeutrAvidin agarose, 6 washes; Hsp90 detected by Western blot with anti-6×His; DMSO = 100% binding
# Chain of C-terminal Hsp90 (His-tagged, competitive binding assay) (P08238 527-724): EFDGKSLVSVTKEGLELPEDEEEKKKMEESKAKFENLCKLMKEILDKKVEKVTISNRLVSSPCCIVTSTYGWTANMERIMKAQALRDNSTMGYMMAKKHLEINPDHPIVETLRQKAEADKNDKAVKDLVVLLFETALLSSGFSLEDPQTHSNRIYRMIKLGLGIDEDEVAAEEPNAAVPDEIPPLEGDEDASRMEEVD
molecule,measurement,setting,value
"CC(=O)OC[C@@H]1NC(=O)[C@H](CC(N)=O)NC(=O)[C@H](CCCCNC(=O)OCc2ccccc2)NC(=O)[C@H](C)NC(=O)[C@H](Cc2ccc(OC(C)=O)cc2)NC1=O [LB63(Ac)2–Cbz, cyclo-Ala-Tyr(Ac)-Ser(Ac)-Asn-Lys(Cbz)] (cyclo(K(Cbz)NS(Ac)Y(Ac)A))",IC50,[1],10 µM
O=C(N[C@@H](CCCCNC(=O)C(F)(F)F)C(=O)O)OCC1c2ccccc2-c2ccccc21 [Fmoc-Lys(Tfa)-OH],cleavage of acetyl or trifluoroacetyl group by human liver microsomes,[2],not cleaved
NCCCC[C@@H]1NC(=O)[C@H](Cc2ccccc2)NC(=O)[C@H](Cc2ccc(O)cc2)NC(=O)[C@H](CO)NC(=O)[C@H](CC(N)=O)NC1=O [LB51] (cyclo(KNSYF)),apparent permeability Papp,Caco-2,3.3e-06 cm/s and 3e-06 cm/s
same,membrane permeability Papp,Caco-2; backbone N-methylation study,3 10^-6 cm/s
same,efficacy at inhibiting the binding event between Hsp90 and Cyp40,[1],most effective
same,IC50,[1],4 µM
CC(=O)NCCCC[C@H](NC(=O)OCC1c2ccccc2-c2ccccc21)C(=O)O,cleavage of acetyl or trifluoroacetyl group by human liver microsomes,[2],not cleaved
C[C@@H]1NC(=O)[C@H](Cc2ccc(O)cc2)NC(=O)[C@H](CO)NC(=O)[C@H](CC(N)=O)NC(=O)[C@H](CCCCN)NC1=O [LB63] (cyclo(KNSYA)),apparent permeability Papp,Caco-2,9e-07 cm/s
same,IC50,[1],2 µM
COC[C@@H]1NC(=O)[C@H](CC(N)=O)NC(=O)[C@H](CCCCN(C)C)NC(=O)[C@H](Cc2ccccc2)NC(=O)[C@H](Cc2ccc(OC)cc2)NC1=O [LB55] (cyclo([Lys(Me2)]NS(Me)Y(Me)F)),apparent permeability Papp,Caco-2,5.6e-06 cm/s
same,metabolism in mouse liver (LC/MS of liver extract),mouse liver,a small quantity of LB51 is produced
same,metabolism by human liver microsomes (LC/MS SIM),"[2]; 5 µM, NADPH, 37 °C, 180 min",no metabolism occurred
CNCCCC[C@@H]1NC(=O)[C@H](Cc2ccccc2)NC(=O)[C@H](Cc2ccc(OC)cc2)NC(=O)[C@H](CO)NC(=O)[C@H](CC(N)=O)NC1=O [LB97] (cyclo([Lys(Me)]NSY(Me)F)),apparent permeability Papp,Caco-2,1.9e-06 cm/s
same,efficacy at inhibiting the binding event between Hsp90 and Cyp40,[1],most effective
"CC(=O)OC[C@@H]1NC(=O)[C@H](CC(N)=O)NC(=O)[C@H](CCCCNC(=O)OCc2ccccc2)NC(=O)[C@H](Cc2ccccc2)NC(=O)[C@H](Cc2ccc(OC(C)=O)cc2)NC1=O [LB51(Ac)2–Cbz, cyclo-Phe-Tyr(Ac)-Ser(Ac)-Asn-Lys(Cbz)] (cyclo(K(Cbz)NS(Ac)Y(Ac)F))",efficacy at inhibiting the binding event between Hsp90 and Cyp40,[1],ineffective
CC(=O)Oc1ccc(C[C@H](NC(=O)OCC2c3ccccc3-c3ccccc32)C(=O)O)cc1 [Fmoc-Tyr(Ac)-OH],cleavage of acetyl group by human liver microsomes,[2],mostly cleaved
CC(=O)OC[C@H](NC(=O)OCC1c2ccccc2-c2ccccc21)C(=O)O [Fmoc-Ser(Ac)-OH],cleavage of acetyl group by human liver microsomes,[2],mostly cleaved
cyclo(K(Cbz)NS(Ac)Y(Ac)A) (SMILES CC(=O)OC[C@@H]1NC(=O)[C@H](CC(N)=O)NC(=O)[C@H](CCCCNC(=O)OCc2ccccc2)NC(=O)[C@H](C)NC(=O)[C@H](Cc2ccc(OC(C)=O)cc2)NC1=O) [LB63(Ac)2–Cbz],IC50,C-terminal Hsp90β [3],> 10 µM
same,IC50,C-terminal Hsp90β [4],10 µM
same,IC50,[5],20 µM
KNSYF (head-to-tail cyclic) [LB51],IC50,C-terminal Hsp90β [4],4 µM
KNSYA (head-to-tail cyclic) [LB63],IC50,C-terminal Hsp90β [4],2 µM
cyclo(K(Cbz)NS(Ac)Y(Ac)F) (SMILES CC(=O)OC[C@@H]1NC(=O)[C@H](CC(N)=O)NC(=O)[C@H](CCCCNC(=O)OCc2ccccc2)NC(=O)[C@H](Cc2ccccc2)NC(=O)[C@H](Cc2ccc(OC(C)=O)cc2)NC1=O) [LB51(Ac)2–Cbz],IC50,C-terminal Hsp90β [3],> 10 µM
